Reference: patent US20230027066A1 (Urovant Sciences GmbH, priority 2019, published 2023)

Key:
Assay type in all cases: in vivo, human
[1] = ABPM study, in-clinic vital signs; settings: SAF; for In-clinic vital signs change from baseline ≥5, subjects / In-clinic vital signs change from baseline ≥10, subjects / In-clinic vital signs change from baseline ≥15, subjects: parameter not given (Table 111)
Method: Safety was evaluated by assessment of clinical laboratory tests, physical examinations, and vital signs measurements from office visits at various time points during the study, and by the documentation of AEs.
Tables 106, 107, and 108 show the changes to in-clinic measurements of systolic blood pressure, diastolic blood pressure, and heart rate over the treatment period.
For subjects with a body weight of at least about 65.4 kg, there was no difference between treatment and placebo in the number of subjects with a ≥5, ≥10, or ≥15 mm Hg increase in systolic blood pressure. The same was true for subjects over the age of 66.

[2] = tested on: males and females with OAB; assay: Phase 3 study of vibegron 50 mg and 100 mg, 12 weeks, efficacy
[3] = thorough QT study, single doses of 200 and 400 mg, healthy volunteers
[4] = Baseline to End of Treatment, subgroup <= 25th percentile BW (65.4 kg)
[5] = Baseline to End of Treatment, subgroup >25th percentile BW (65.4 kg)
[6] = Baseline to End of Treatment, subgroup Age <= 75th percentile (66 years)
[7] = Baseline to End of Treatment, subgroup Age > 75th percentile (66 years)
[8] = Baseline to End of Treatment, subgroup Pre-existing hypertension: NO
[9] = Baseline to End of Treatment, subgroup Pre-existing hypertension: YES
[10] = Baseline to End of Treatment, subgroup eGFR <= 25th percentile (72 mL/min/1.73 m^2)
[11] = Baseline to End of Treatment, subgroup eGFR > 25th percentile (72 mL/min/1.73 m^2)
[12] = Over 28 Days on 3 Consecutive Visits
[13] = Over 28 Days on 3 Consecutive Visits, subgroup Body Weight <= 25th Percentile (65.4 kg)
[14] = Over 28 Days on 3 Consecutive Visits, subgroup Body Weight > 25th Percentile (65.4 kg)
[15] = Over 28 Days on 3 Consecutive Visits, subgroup eGFR <= 25th Percentile (72 mL/min/1.73 m^2)
[16] = Over 28 Days on 3 Consecutive Visits, subgroup eGFR > 25th Percentile (72 mL/min/1.73 m^2)

Structure (SMILES): O=C(Nc1ccc(C[C@@H]2CC[C@H]([C@H](O)c3ccccc3)N2)cc1)[C@@H]1CCc2nccc(=O)n21 [Vibegron, (6S)-N-[4-[[(2S,5R)−5-[(R)-hydroxy(phenyl)methyl]pyrrolidin−2-yl]methyl]phenyl]−4-oxo−7,8-dihydro−6H-pyrrolo[1,2-a]pyrimidine−6-carboxamide]
- In-clinic DBP (mmHg) change from baseline ≥10, subjects ([1]; Baseline to End of Treatment): 12 (11.4) n (%)
- In-clinic DBP (mmHg) change from baseline ≥15, subjects ([1]; Baseline to End of Treatment): 7 (6.7) n (%)
- In-clinic HR (bpm) change from baseline ≥5, subjects ([1]; Baseline to End of Treatment): 37 (35.2) n (%)
- In-clinic HR (bpm) change from baseline ≥10, subjects ([1]; Baseline to End of Treatment): 12 (11.4) n (%)
- In-clinic HR (bpm) change from baseline ≥15, subjects ([1]; Baseline to End of Treatment): 4 (3.8) n (%)
- In-clinic SBP (mmHg) change from baseline ≥5, subjects ([1]; Baseline to End of Treatment): 36 (34.3) n (%)
- In-clinic SBP (mmHg) change from baseline ≥10, subjects ([1]; Baseline to End of Treatment): 22 (21.0) n (%)
- In-clinic SBP (mmHg) change from baseline ≥15, subjects ([1]; Baseline to End of Treatment): 13 (12.4) n (%)
- In-clinic SBP change from baseline ≥5, subjects [1, 4]: 13 (43.3) n (%)
- In-clinic SBP change from baseline ≥10, subjects [1, 4]: 9 (30.0) n (%)
- In-clinic SBP change from baseline ≥15, subjects [1, 4]: 5 (16.7) n (%)
- In-clinic SBP change from baseline ≥5, subjects [1, 5]: 23 (30.7) n (%)
- In-clinic SBP change from baseline ≥10, subjects [1, 5]: 13 (17.3) n (%)
- In-clinic SBP change from baseline ≥15, subjects [1, 5]: 8 (10.7) n (%)
- In-clinic SBP change from baseline ≥5, subjects [1, 6]: 29 (34.9) n (%)
- In-clinic SBP change from baseline ≥10, subjects [1, 6]: 18 (21.7) n (%)
- In-clinic SBP change from baseline ≥15, subjects [1, 6]: 10 (12.0) n (%)
- In-clinic SBP change from baseline ≥5, subjects [1, 7]: 7 (31.8) n (%)
- In-clinic SBP change from baseline ≥10, subjects [1, 7]: 4 (18.2) n (%)
- In-clinic SBP change from baseline ≥15, subjects [1, 7]: 3 (13.6) n (%)
- In-clinic SBP change from baseline ≥5, subjects [1, 8]: 22 (33.3) n (%)
- In-clinic SBP change from baseline ≥10, subjects [1, 8]: 14 (21.2) n (%)
- In-clinic SBP change from baseline ≥15, subjects [1, 8]: 9 (13.6) n (%)
- In-clinic SBP change from baseline ≥5, subjects [1, 9]: 14 (35.9) n (%)
- In-clinic SBP change from baseline ≥10, subjects [1, 9]: 8 (20.5) n (%)
- In-clinic SBP change from baseline ≥15, subjects [1, 9]: 4 (10.3) n (%)
- In-clinic SBP change from baseline ≥5, subjects [1, 10]: 13 (43.3) n (%)
- In-clinic SBP change from baseline ≥10, subjects [1, 10]: 9 (30.0) n (%)
- In-clinic SBP change from baseline ≥15, subjects [1, 10]: 6 (20.0) n (%)
- In-clinic SBP change from baseline ≥5, subjects [1, 11]: 23 (30.7) n (%)
- In-clinic SBP change from baseline ≥10, subjects [1, 11]: 13 (17.3) n (%)
- In-clinic SBP change from baseline ≥15, subjects [1, 11]: 7 (9.3) n (%)
- In-clinic DBP (mmHg) change from baseline ≥5, subjects [1, 12]: 5 (5.1) n (%)
- In-clinic DBP (mmHg) change from baseline ≥10, subjects [1, 12]: 3 (3.1) n (%)
- In-clinic DBP (mmHg) change from baseline ≥15, subjects [1, 12]: 0 n (%)
- In-clinic HR (bpm) change from baseline ≥5, subjects [1, 12]: 6 (6.1) n (%)
- In-clinic HR (bpm) change from baseline ≥10, subjects [1, 12]: 3 (3.1) n (%)
- In-clinic HR (bpm) change from baseline ≥15, subjects [1, 12]: 0 n (%)
- In-clinic SBP (mmHg) change from baseline ≥5, subjects [1, 12]: 14 (14.3) n (%)
- In-clinic SBP (mmHg) change from baseline ≥10, subjects [1, 12]: 6 (6.1) n (%)
- In-clinic SBP (mmHg) change from baseline ≥15, subjects [1, 12]: 0 n (%)
- In-clinic vital signs change from baseline ≥5, subjects [1, 13]: 6 (23.1) n (%)
- In-clinic vital signs change from baseline ≥10, subjects [1, 13]: 2 (7.7) n (%)
- In-clinic vital signs change from baseline ≥15, subjects [1, 13]: 0 n (%)
- In-clinic vital signs change from baseline ≥5, subjects [1, 14]: 8 (11.1) n (%)
- In-clinic vital signs change from baseline ≥10, subjects [1, 14]: 4 (5.6) n (%)
- In-clinic vital signs change from baseline ≥15, subjects [1, 14]: 0 n (%)
- In-clinic vital signs change from baseline ≥5, subjects [1, 15]: 3 (10.7) n (%)
- In-clinic vital signs change from baseline ≥10, subjects [1, 15]: 1 (3.6) n (%)
- In-clinic vital signs change from baseline ≥15, subjects [1, 15]: 0 n (%)
- In-clinic vital signs change from baseline ≥5, subjects [1, 16]: 11 (15.7) n (%)
- In-clinic vital signs change from baseline ≥10, subjects [1, 16]: 5 (7.1) n (%)
- In-clinic vital signs change from baseline ≥15, subjects [1, 16]: 0 n (%)
- Micturitions: LS mean placebo adjusted change from baseline (95% CI) at Week 12 ([2]; vibegron 50 mg once daily): −0.86 (−1.12, −0.60)
- Total incontinence episodes: LS mean placebo adjusted change from baseline (95% CI) at Week 12 ([2]; vibegron 50 mg once daily): −0.30 (−0.49, −0.12)
- Urge urinary incontinence episodes: LS mean placebo adjusted change from baseline (95% CI) at Week 12 ([2]; vibegron 50 mg once daily): −0.27 (−0.44, −0.10)
- Urgency episodes: LS mean placebo adjusted change from baseline (95% CI) at Week 12 ([2]; vibegron 50 mg once daily): −0.51 (−0.76, −0.25)
- Micturitions: LS mean placebo adjusted change from baseline (95% CI) at Week 12 ([2]; vibegron 100 mg once daily): −0.81 (−1.07, −0.55)
- Total incontinence episodes: LS mean placebo adjusted change from baseline (95% CI) at Week 12 ([2]; vibegron 100 mg once daily): −0.43 (−0.61, −0.24)
- Urge urinary incontinence episodes: LS mean placebo adjusted change from baseline (95% CI) at Week 12 ([2]; vibegron 100 mg once daily): −0.39 (−0.55, −0.22)
- Urgency episodes: LS mean placebo adjusted change from baseline (95% CI) at Week 12 ([2]; vibegron 100 mg once daily): −0.67 (−0.93, −0.42)
- effect on QTc or blood pressure in thorough QT study ([3]; human, in vivo): no clinically meaningful effect on QTc or blood pressure
- AUC, mean ± SD ([3]; vibegron 200 mg single dose): 2430 ± 974 ng·h/mL
- Maximum mean placebo corrected change from baseline RR interval ([3]; vibegron 200 mg single dose): -84.36 ms
- Maximum mean placebo corrected change from baseline diastolic BP ([3]; vibegron 200 mg single dose): 2.42 mmHg
- Maximum mean placebo corrected change from baseline systolic BP ([3]; vibegron 200 mg single dose): 2.20 mmHg
- AUC, mean ± SD ([3]; vibegron 400 mg single dose): 6800 ± 2300 ng·h/mL
- Maximum mean placebo corrected change from baseline RR interval ([3]; vibegron 400 mg single dose): -162.45 ms
- Maximum mean placebo corrected change from baseline diastolic BP ([3]; vibegron 400 mg single dose): 3.99 mmHg
- Maximum mean placebo corrected change from baseline systolic BP ([3]; vibegron 400 mg single dose): 3.97 mmHg
